Patent US20090054328A1, “Reagents and Methods for Modulating Gene Expression Related to Hypertension” (The Board of Trustees of the University of Illinois, priority 2005, published 2009)

Columns and labels:
SHR = assay: Systolic blood pressure (tail-cuff) in SHR, drug given continuously for 3 weeks by osmotic pump; type: in vivo, rat; settings: SHR 16 weeks old at start; osmotic pump, continuous 3 weeks; vehicle 221.6
Protocol: The importance of regulating MLCK expression by Ras signaling in vivo was further investigated by treating SHR with U0126 continuously for 3 weeks. U0126 is a specific inhibitor MEK (Favata et al., 1998J. Biol. Chem. 273: 18623-18632), an upstream regulator of ERK in the Ras signaling pathway (Chien & Hoshijima, 2002, Id.). […] In these experiments, Systolic blood pressure (SBP) was measured using tail-cuff sphygmomanometry (IITC Incorporated/Life Sciences Institute, Woodland Hills Calif.). Drugs were delivered via an osmotic pump (DURECT Corporation, Cupertino, Calif.) implanted subcutaneously in the shoulder. The pumps (having a 2 mL capacity at a delivery rate of 2.45 μL/hour) were filled with 13.5 mM U0126 (BIOMOL Research Laboratories, Plymouth Meeting, Pa.) dissolved in 50% DMSO or vehicle alone. Three weeks later, rats were sacrificed and aortas were removed. Some vessels were processed for histology, while other tissue was immediately placed in ice-cold acetone containing 10% trichloroacetic acid (TCA) and 10 mM dithiothreitol (DTT). Endothelial cells were removed by gently rubbing the inside of the vessels with a cell lifter and connective tissue was removed by dissection. The cleaned vessels were then frozen on dry ice and stored at −80° C. for biochemical analysis.
Another experiment was conducted to determine if inhibiting Ras signaling could decrease blood pressure in SHR.

[1] = system: Mm5MT mouse mammary cancer cells; assay: Apoptosis by FACS (annexin V and PI) in Mm5MT cells; type: cell-based
Protocol: (§1) Mm5MT or MLL cells (200,000 cells per well) were seeded in 6-well dishes one day before drug treatment and cultured as described above.
(§2) On the day of the experiment, media was changed to DMEM supplemented with 0.5% FBS and the cells were treated with drugs as defined by the specific experimental protocol. […] At least 10,000 cells were counted per analysis and cells that stained positive for annexin V and PI were judged to be apoptotic.
The cells were then treated with trypsin, washed twice with cold PBS and re-suspended in 100 μl of buffer containing 10 mM Hepes, pH 7.4, 140 mM NaCl and 2.5 mM CaCl2 (binding buffer). Then, 5 μl of FITC-conjugated annexin V (Pharmingen, San Diego, Calif.) and 10 μl of propidium iodide (PI) (50 μg/ml) were added and cells were incubated in the dark at room temperature for 15 min.

[2] = system: MLL rat prostate cancer cells; assay: Apoptosis by FACS (annexin V and PI) in MLL cells; type: cell-based
Protocol: as §1, §2

[3] = system: precancerous mammary alveolar lesions (MAL); assay: Mouse mammary gland organ culture, DMBA-induced mammary alveolar lesions (MAL); type: cell-based
Protocol: To determine the effects of inhibiting MLCK in mammary tumors, an in vitro mammary cancer model was used as follows. Mammary glands obtained from young Balb/c mice that are exposed to 7,12-dimethylbenz(a)anhracene (DMBA) for 24 hours in culture form precancerous lesions in 24 days (Mehta et al., 2000, J Natl Cancer Instit 92:418-23). In this experiment, 70 mammary glands from 35 Balb/c mice were divided into seven groups of 10 glands each and incubated in serum-free medium containing insulin, prolactin (5 μg/ml each), aldosterone and hydrocortisone (1 μg/ml each) for 10 days. DMBA (2 μg/ml) was included in the medium for 24 hours on day 3. The glands were incubated for an additional 14 days in the absence of hormones except insulin. This allows the regression of the normal mammary alveolar structures. […] Chemopreventive agents were included in the medium during the first 10 days. The glands were fixed in formalin and stained with alum carmine and evaluated for MAL. Percent inhibition was calculated by comparing the incidence in the control glands with the treated groups.

MLC-P in Mm5MT cells = assay: MLC-P by urea/glycerol gel-immunoblotting in Mm5MT cells; type: cell-based, mouse; settings: 10 μM ML-7, 30 μM etoposide or both, 16 hours
Protocol: (§3) MLC-P expression was measured in the cells using urea/glycerol gel-immunoblotting as follows. […] The unphosphoryiated and phosphorylated forms of MLC20 were separated using urea/glycerol PAGE, transferred to nitrocellulose and probed with an affinity purified antibody to MLC20. This antibody recognizes the unphosphoryiated and phosphorylated forms of MLC20. Immunoreactive bands were visualized using enhanced chemiluminescence (ECL) detection reagents (Amersham Pharmacia Biotech, Piscataway, N.J.) (Fazal et al., 2005, Mol Cell Biol 25:6259-66).

MLC-P in MLL cells = assay: MLC-P by urea/glycerol gel-immunoblotting in MLL cells; type: cell-based, rat; settings: 5 μM ML-7, 30 μM etoposide or both
Protocol: as §3
To determine if ML-7 stimulates the ability of etoposide to induce apoptosis and retard tumor growth widely, the effects of ML-7 and etoposide on MLL prostate cancer cells were determined. In this case, pre-treated MLL cells were grown in culture with 5 μM ML-7 before adding varying concentrations of etoposide from 1 to 1000 μlM.

Mm5MT mammary tumors = settings: for tumor growth (in words): mice, 27 mM ML-7 osmotic pump or 25 mg/kg etoposide i.p., 4 weeks, only the etoposide effect statistically significant; for tolerability on physical examination: mouse, in vivo
Protocol: To investigate the anticancer activity of ML-7 in vivo, Mm5MT cells were injected into the right flanks of female mice as follows. Mm5MT cells grown in culture were harvested immediately before injection into syngeneic MMTV-C3H/HeM mice. Cells were washed to remove serum and 10^6 cells were resuspended in 100 μl of serum-free DMEM. Healthy, MMTV-free female mice (14-20 weeks old) were anesthetized with ether and 10^6 cells were injected subcutaneously into the right flank. The mice were randomly divided into four groups of five mice, each, and treated with vehicle, ML-7, etoposide or ML-7 plus etoposide. Drug administration was started 1 week after the cells were injected. To deliver ML-7, a small horizontal incision was made in the interscapular area and a 200 μl osmotic pump (Alzet, Cupertino, Calif.) filled with either 27 mM ML-7 in 50% DMSO or 50% DMSO (vehicle control) was implanted and the wound closed. […] When given, 25 mg/kg etoposide was injected intraperitoneally on the first 3 days of every week for 4 weeks (days 7-9, 14-16, 21-23 and 28-30) (Nakamura el al 2003, Cancer Sci 94:119-24). The mice were sacrificed with ether after 4 weeks of drug administration and tumors were removed, weighed and processed for analysis.
Histological analysis of the tumors was conducted as follows. The excised tumours were gently patted dry and weighed using a Mettler digital balance. Tumors were then sectioned into 2 mm slices, fixed in 10% neutral buffered formalin, routinely processed and embedded in paraffin. […] Photomicrographs documenting the entire section were collected and areas of necrotic and viable tumor were determined using the manual tracing tools within MetaMorph 6.2 (Universal Imaging Corporation, Downingtown, Pa.).

MLL prostate tumors = MLL prostate tumors in Copenhagen rats; type: in vivo, rat; settings: for TUNEL positive nuclei in tumors: 300 cells from randomly chosen fields, control 19.2%
Protocol: To test the anticancer effect of ML-7 in a rat prostate cancer model as follows. MLL cells grown in culture as described above were harvested and washed in serum-free Hank's buffer. The cells were suspended in 500 μl serum-free Hank's and 10^6 cells were injected subcutaneously into the right flank of 12-week old male Copenhagen rats anesthetized with ether. […] The rats were randomly divided into four groups, five in each group. The rats received injections of ML-7 or vehicle via the jugular vein every 4 days for 2 weeks. ML-7 was used at the dose of 35 mg/kg. Etoposide was injected intraperitoneal injection (IP) at the maximum tolerant dose of 50 mg/m^2 daily (Muenchen et al., 2000, Anticancer Res 20:735-40), The rats were sacrificed with ether 14 days after the start of drug treatment. The tumors were removed, weighed and processed as described above.
Tumor sections were also examined for apotosis using TUNEL staining Sections were deparaffinized and rehydrated according to standard protocol. Tissue sections were permeabilized by placing slides in 10 mM citrate buffer (pH 6.0) and applying 350W microwave irradiation for 5 min. Tissue sections were then stained with TMR Red-labelled terminal deoxynucleotidyl transferase dUTP nick-end labeling (TUNEL) enzyme reagent using the In Situ Cell Death Detection kit (Roche Molecular Biochemicals, Indianapolis, Ind.) as described by the manufacturer. Sections stained with the labeling solution without the terminal transferase were used as negative control. Tissue sections were finally mounted using Vectashield containing DAPI and examined using a Zeiss LSM 510 laser confocal microscope.

smooth muscle cells = settings: cited from earlier work

SMILES | systolic blood pressure at the end of the 3-week treatment period (SHR) [mmHg] | apoptosis by ML-7 by itself ([1]; 10 μM ML-7, 0 etoposide) | apoptotic cells (annexin V and PI positive) ([1]; 5-25 μM ML-7, 16 h) | apoptotic cells (annexin V and PI positive) ([2]; 5-25 μM ML-7, 16 h) | inhibition of MAL development ([3]; 0.1 μM, compared to control) | inhibition of MAL development ([3]; 1 μM, compared to a 70% incidence in the control glands) [%] | MLC-P (MLC-P in Mm5MT cells) | MLC-P (MLC-P in MLL cells) | tumor growth (in words) (Mm5MT mammary tumors) | tolerability on physical examination (Mm5MT mammary tumors) | TUNEL positive nuclei in tumors (MLL prostate tumors) | decrease in tumor weight (MLL prostate tumors; Copenhagen rats, ML-7 35 mg/kg every 4 days, etoposide 50 mg/m^2 daily IP, 14 days, vs. vehicle control) [%] | apoptosis in smooth muscle cells (smooth muscle cells) | EC50 ([2]; Rattus norvegicus, with ML-7 (5 μM pretreatment), read-out: concentration of etoposide required for inducing apoptosis in 50% of the cells) [µM] | inhibition of the incidence of lesion formation ([3]; 1 and 10 μM, compared to control)
O=S(=O)(c1cccc2c(I)cccc12)N1CCCNCC1 [ML-7] | 165.0±3.9 | significantly increased | dose-dependent increase | dose-dependent increase | 40% | 58 | decreased | decreased | decreased | tolerated these drugs without visible signs of discomfort | 40,6% | 29.6 | induces apoptosis |  | 
COc1cc([C@@H]2c3cc4c(cc3[C@@H](O[C@@H]3O[C@@H]5CO[C@@H](C)O[C@H]5[C@H](O)[C@H]3O)[C@H]3COC(=O)[C@H]23)OCO4)cc(OC)c1O [etoposide] |  |  |  |  | did not affect |  | decreased | smaller decrease | decreased | tolerated these drugs without visible signs of discomfort | 35.8% |  |  | 68 | 40-46%
